Laboratory results taken from the kinase profiling compilation of Christmann-Franck et al. (2016).

What was measured:
Assay in all cases: KINOMEscan competition binding
Conditions in all cases: compound 10.0 µM
AKT1 (human) = AKT1 (human) (UniProt P31749)
CDK13 (human) = CDK13 (human) (UniProt Q14004)
SRPK1 (human) = SRPK1 (human) (UniProt Q96SB4)
CDC42BPB (human) = CDC42BPB (human) (UniProt Q9Y5S2)
PKN1 (human) = PKN1 (human) (UniProt Q16512)
PDPK1 (human) = PDPK1 (human) (UniProt O15530)
PIK3C2G (human) = PIK3C2G (human) (UniProt O75747)
EPHA1 (human) = EPHA1 (human) (UniProt P21709)
Chain of EPHA1 (human) (P21709 whole entry, looked up): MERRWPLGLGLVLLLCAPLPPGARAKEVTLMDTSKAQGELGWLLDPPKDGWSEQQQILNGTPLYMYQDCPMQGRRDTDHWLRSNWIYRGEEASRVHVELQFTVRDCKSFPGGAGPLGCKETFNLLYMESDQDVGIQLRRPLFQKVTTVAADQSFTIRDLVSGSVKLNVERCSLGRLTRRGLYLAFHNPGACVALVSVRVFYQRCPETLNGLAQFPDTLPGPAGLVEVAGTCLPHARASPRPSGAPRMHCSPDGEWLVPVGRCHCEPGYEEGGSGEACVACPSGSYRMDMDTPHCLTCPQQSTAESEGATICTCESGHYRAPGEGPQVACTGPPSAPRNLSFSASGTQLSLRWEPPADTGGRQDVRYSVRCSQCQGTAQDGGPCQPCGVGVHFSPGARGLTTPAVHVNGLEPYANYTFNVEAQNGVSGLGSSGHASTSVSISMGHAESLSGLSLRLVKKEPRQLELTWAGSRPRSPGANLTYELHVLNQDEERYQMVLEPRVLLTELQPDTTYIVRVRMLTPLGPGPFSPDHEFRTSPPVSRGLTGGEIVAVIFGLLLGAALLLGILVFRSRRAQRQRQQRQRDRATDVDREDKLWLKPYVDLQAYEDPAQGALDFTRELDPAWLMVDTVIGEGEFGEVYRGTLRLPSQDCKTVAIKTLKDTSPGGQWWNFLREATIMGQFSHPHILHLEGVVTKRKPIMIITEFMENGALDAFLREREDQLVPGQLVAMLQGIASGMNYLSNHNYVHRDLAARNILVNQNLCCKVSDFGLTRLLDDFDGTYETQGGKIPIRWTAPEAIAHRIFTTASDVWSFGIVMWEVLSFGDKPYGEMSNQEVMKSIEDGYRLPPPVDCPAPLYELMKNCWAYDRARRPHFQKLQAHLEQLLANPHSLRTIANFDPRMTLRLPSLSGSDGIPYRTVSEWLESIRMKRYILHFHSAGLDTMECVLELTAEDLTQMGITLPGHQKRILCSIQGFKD

MAP3K1 (human) = MAP3K1 (human) (UniProt Q13233)
Chain of MAP3K1 (human) (Q13233 whole entry, looked up): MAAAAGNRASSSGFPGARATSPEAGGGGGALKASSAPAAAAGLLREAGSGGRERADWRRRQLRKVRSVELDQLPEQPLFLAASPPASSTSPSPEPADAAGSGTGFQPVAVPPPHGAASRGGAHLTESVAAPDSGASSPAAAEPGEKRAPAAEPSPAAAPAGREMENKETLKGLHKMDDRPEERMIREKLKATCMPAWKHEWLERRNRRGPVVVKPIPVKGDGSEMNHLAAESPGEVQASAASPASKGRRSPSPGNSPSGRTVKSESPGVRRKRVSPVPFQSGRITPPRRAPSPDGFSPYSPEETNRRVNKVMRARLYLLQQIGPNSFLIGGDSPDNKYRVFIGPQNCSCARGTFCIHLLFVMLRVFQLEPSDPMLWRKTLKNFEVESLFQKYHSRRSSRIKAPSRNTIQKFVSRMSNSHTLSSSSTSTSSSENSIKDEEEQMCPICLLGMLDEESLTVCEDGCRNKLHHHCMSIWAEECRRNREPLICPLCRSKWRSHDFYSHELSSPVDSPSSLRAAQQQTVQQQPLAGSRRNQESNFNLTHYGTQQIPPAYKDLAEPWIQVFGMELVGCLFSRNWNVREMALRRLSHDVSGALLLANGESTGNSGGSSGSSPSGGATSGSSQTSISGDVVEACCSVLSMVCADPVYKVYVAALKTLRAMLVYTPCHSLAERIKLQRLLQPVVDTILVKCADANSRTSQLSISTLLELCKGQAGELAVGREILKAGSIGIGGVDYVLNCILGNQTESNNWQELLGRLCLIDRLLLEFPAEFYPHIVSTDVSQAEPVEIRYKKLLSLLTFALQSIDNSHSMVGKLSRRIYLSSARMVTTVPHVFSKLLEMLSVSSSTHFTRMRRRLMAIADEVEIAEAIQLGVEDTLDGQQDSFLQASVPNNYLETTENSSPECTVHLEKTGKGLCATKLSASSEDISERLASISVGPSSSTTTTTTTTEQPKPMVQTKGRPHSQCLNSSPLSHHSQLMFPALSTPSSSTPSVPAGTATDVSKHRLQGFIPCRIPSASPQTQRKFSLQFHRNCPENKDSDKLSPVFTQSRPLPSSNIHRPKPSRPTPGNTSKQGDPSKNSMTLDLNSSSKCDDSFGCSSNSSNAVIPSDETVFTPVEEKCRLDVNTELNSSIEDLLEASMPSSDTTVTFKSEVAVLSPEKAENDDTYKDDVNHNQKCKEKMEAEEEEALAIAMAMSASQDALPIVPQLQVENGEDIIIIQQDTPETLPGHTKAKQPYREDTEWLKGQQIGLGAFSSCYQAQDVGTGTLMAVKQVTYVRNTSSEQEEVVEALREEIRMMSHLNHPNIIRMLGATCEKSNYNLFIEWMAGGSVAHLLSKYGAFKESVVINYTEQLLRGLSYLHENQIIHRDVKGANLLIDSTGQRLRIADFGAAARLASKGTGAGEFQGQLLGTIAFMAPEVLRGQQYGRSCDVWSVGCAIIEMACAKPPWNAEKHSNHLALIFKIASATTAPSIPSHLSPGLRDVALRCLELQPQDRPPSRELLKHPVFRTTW

MAP2K3 (human) = MAP2K3 (human) (UniProt P46734)
PIK3CA (human) = PIK3CA (human) (UniProt P42336)
ULK3 (human) = ULK3 (human) (UniProt Q6PHR2)
EPHB6 (human) = EPHB6 (human) (UniProt O15197)
MAPK11 (human) = MAPK11 (human) (UniProt Q15759)
MAP2K6 (human) = MAP2K6 (human) (UniProt P52564)
PRKX (human) = PRKX (human) (UniProt P51817)
SRPK3 (human) = SRPK3 (human) (UniProt Q9UPE1)
AKT3 (human) = AKT3 (human) (UniProt Q9Y243)
RPS6KA5 KD2 (human) = RPS6KA5 KD2 (human) (UniProt O75582)
Chain of RPS6KA5 KD2 (human) (O75582 whole entry, looked up): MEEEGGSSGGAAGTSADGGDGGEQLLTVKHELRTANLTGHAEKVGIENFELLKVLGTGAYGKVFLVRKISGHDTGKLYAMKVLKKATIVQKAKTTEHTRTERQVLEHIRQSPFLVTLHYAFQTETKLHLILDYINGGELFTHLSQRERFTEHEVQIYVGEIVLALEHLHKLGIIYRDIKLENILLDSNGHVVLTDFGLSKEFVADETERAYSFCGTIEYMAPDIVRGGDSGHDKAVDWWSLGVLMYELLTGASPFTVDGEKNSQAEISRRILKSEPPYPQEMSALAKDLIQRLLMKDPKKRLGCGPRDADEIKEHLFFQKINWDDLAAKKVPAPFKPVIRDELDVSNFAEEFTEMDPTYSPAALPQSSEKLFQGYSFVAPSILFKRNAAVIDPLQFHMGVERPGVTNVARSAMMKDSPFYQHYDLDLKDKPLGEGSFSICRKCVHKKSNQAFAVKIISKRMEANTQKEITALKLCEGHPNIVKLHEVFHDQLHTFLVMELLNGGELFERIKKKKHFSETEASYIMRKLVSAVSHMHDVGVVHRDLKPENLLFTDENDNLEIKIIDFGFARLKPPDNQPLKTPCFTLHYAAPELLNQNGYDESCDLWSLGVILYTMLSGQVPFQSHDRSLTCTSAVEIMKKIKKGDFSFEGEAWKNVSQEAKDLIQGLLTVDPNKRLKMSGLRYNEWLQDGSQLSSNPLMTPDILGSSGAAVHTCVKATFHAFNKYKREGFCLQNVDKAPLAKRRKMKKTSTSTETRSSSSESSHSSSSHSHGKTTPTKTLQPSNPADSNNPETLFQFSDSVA

MAPK8 (human) = MAPK8 (human) (UniProt P45983)
RPS6KA3 KD1 (human) = RPS6KA3 KD1 (human) (UniProt P51812)
MAPK15 (human) = MAPK15 (human) (UniProt Q8TD08)
Chain of MAPK15 (human) (Q8TD08 whole entry, looked up): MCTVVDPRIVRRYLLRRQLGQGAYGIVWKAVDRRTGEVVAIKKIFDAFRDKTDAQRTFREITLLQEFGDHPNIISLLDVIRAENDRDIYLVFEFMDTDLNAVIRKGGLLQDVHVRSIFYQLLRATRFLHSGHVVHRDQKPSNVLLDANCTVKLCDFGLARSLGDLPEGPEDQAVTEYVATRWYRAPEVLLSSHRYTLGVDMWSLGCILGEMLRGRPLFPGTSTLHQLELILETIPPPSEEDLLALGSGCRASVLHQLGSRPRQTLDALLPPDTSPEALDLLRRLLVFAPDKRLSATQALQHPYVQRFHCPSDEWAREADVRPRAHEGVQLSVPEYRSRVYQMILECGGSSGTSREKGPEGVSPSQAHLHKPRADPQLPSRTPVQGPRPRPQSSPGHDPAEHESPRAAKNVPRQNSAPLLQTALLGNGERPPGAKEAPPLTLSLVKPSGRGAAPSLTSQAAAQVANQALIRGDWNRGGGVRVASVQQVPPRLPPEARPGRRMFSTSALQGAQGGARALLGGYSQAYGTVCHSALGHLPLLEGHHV

[1] = test system: PIK3CA (human), P42336 [E542K]
GRK1 (human) = GRK1 (human) (UniProt Q15835)
CDK11B (human) = CDK11B (human) (UniProt P21127)
PRKCQ (human) = PRKCQ (human) (UniProt Q04759)
DYRK1B (human) = DYRK1B (human) (UniProt Q9Y463)
RAF1 (human) = RAF1 (human) (UniProt P04049)
CDK15 (human) = CDK15 (human) (UniProt Q96Q40)
RIPK2 (human) = RIPK2 (human) (UniProt O43353)
SLK (human) = SLK (human) (UniProt Q9H2G2)
MST1R (human) = MST1R (human) (UniProt Q04912)
OXSR1 (human) = OXSR1 (human) (UniProt O95747)
MAP2K7 (human) = MAP2K7 (human) (UniProt O14733)
WEE2 (human) = WEE2 (human) (UniProt P0C1S8)
MUSK (human) = MUSK (human) (UniProt O15146)
ACVR1B (human) = ACVR1B (human) (UniProt P36896)
STK25 (human) = STK25 (human) (UniProt O00506)
MAPK14 (human) = MAPK14 (human) (UniProt Q16539)
PHKG2 (human) = PHKG2 (human) (UniProt P15735)
Chain of PHKG2 (human) (P15735 whole entry, looked up): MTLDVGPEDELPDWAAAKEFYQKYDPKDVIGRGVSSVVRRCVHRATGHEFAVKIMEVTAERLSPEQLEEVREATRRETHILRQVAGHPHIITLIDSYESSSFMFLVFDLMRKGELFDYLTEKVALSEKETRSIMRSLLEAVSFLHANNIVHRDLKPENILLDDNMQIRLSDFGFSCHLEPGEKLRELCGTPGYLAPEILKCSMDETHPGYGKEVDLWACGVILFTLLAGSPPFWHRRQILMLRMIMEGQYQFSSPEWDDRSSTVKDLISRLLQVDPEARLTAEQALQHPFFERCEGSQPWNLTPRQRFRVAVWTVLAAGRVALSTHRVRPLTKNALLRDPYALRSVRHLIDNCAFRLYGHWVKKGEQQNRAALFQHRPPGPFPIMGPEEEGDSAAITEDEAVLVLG

Chain of SRPK1 (human) (Q96SB4 whole entry, looked up): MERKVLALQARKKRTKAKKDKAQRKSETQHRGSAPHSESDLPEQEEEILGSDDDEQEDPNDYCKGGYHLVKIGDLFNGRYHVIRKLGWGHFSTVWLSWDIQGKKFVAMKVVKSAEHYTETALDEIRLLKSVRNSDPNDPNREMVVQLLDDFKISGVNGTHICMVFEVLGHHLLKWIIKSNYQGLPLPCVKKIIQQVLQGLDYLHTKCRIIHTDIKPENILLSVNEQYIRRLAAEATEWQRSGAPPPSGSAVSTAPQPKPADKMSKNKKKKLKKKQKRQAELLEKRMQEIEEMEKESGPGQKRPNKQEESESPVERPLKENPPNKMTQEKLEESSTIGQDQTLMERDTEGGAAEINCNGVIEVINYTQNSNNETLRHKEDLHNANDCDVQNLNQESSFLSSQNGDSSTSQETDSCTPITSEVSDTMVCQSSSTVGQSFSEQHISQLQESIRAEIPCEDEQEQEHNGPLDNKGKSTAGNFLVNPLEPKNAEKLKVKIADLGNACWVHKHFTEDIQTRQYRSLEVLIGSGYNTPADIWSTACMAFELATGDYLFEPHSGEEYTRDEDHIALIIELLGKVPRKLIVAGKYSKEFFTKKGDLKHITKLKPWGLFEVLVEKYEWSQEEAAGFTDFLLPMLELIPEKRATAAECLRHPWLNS

SMILES: CCCS(=O)(=O)Nc1ccc(F)c(C(=O)c2c[nH]c3ncc(Cl)cc23)c1F
- kinase still bound, per cent of control (AKT1 (human)): 100%
- kinase still bound, per cent of control (CDK13 (human)): 100%
- kinase still bound, per cent of control (SRPK1 (human)): 100%
- kinase still bound, per cent of control (CDC42BPB (human)): 100%
- kinase still bound, per cent of control (PKN1 (human)): 85%
- kinase still bound, per cent of control (PDPK1 (human)): 85%
- kinase still bound, per cent of control (PIK3C2G (human)): 55%
- kinase still bound, per cent of control (EPHA1 (human)): 100%
- kinase still bound, per cent of control (MAP3K1 (human)): 73%
- kinase still bound, per cent of control (MAP2K3 (human)): 53%
- kinase still bound, per cent of control (PIK3CA (human)): 82%
- kinase still bound, per cent of control (ULK3 (human)): 60%
- kinase still bound, per cent of control (EPHB6 (human)): 3.6%
- kinase still bound, per cent of control (MAPK11 (human)): 100%
- kinase still bound, per cent of control (MAP2K6 (human)): 47%
- kinase still bound, per cent of control (PRKX (human)): 100%
- kinase still bound, per cent of control (SRPK3 (human)): 100%
- kinase still bound, per cent of control (AKT3 (human)): 100%
- kinase still bound, per cent of control (RPS6KA5 KD2 (human)): 86%
- kinase still bound, per cent of control (MAPK8 (human)): 96%
- kinase still bound, per cent of control (RPS6KA3 KD1 (human)): 56%
- kinase still bound, per cent of control (MAPK15 (human)): 97%
- kinase still bound, per cent of control [1]: 100%
- kinase still bound, per cent of control (GRK1 (human)): 100%
- kinase still bound, per cent of control (CDK11B (human)): 99%
- kinase still bound, per cent of control (PRKCQ (human)): 79%
- kinase still bound, per cent of control (DYRK1B (human)): 87%
- kinase still bound, per cent of control (RAF1 (human)): 3.4%
- kinase still bound, per cent of control (CDK15 (human)): 100%
- kinase still bound, per cent of control (RIPK2 (human)): 8.3%
- kinase still bound, per cent of control (SLK (human)): 15%
- kinase still bound, per cent of control (MST1R (human)): 100%
- kinase still bound, per cent of control (OXSR1 (human)): 24%
- kinase still bound, per cent of control (MAP2K7 (human)): 83%
- kinase still bound, per cent of control (WEE2 (human)): 100%
- kinase still bound, per cent of control (MUSK (human)): 71%
- kinase still bound, per cent of control (ACVR1B (human)): 98%
- kinase still bound, per cent of control (STK25 (human)): 53%
- kinase still bound, per cent of control (MAPK14 (human)): 60%
- kinase still bound, per cent of control (PHKG2 (human)): 52%

SMILES: CCc1nc(-c2cccc(C)c2)c(-c2ccnc(NC(=O)c3ccccc3)c2)s1
- kinase still bound, per cent of control (AKT1 (human)): 100%
- kinase still bound, per cent of control (CDK13 (human)): 100%
- kinase still bound, per cent of control (SRPK1 (human)): 100%
- kinase still bound, per cent of control (CDC42BPB (human)): 63%
- kinase still bound, per cent of control (PKN1 (human)): 98%
- kinase still bound, per cent of control (PDPK1 (human)): 89%
- kinase still bound, per cent of control (PIK3C2G (human)): 40%
- kinase still bound, per cent of control (EPHA1 (human)): 56%
- kinase still bound, per cent of control (MAP3K1 (human)): 90%
- kinase still bound, per cent of control (MAP2K3 (human)): 96%
- kinase still bound, per cent of control (PIK3CA (human)): 100%
- kinase still bound, per cent of control (ULK3 (human)): 88%
- kinase still bound, per cent of control (EPHB6 (human)): 16%
- kinase still bound, per cent of control (MAPK11 (human)): 0%
- kinase still bound, per cent of control (MAP2K6 (human)): 79%
- kinase still bound, per cent of control (PRKX (human)): 100%
- kinase still bound, per cent of control (SRPK3 (human)): 100%
- kinase still bound, per cent of control (AKT3 (human)): 95%
- kinase still bound, per cent of control (RPS6KA5 KD2 (human)): 100%
- kinase still bound, per cent of control (MAPK8 (human)): 0.3%
- kinase still bound, per cent of control (RPS6KA3 KD1 (human)): 93%
- kinase still bound, per cent of control (MAPK15 (human)): 100%
- kinase still bound, per cent of control [1]: 100%
- kinase still bound, per cent of control (GRK1 (human)): 100%
- kinase still bound, per cent of control (CDK11B (human)): 88%
- kinase still bound, per cent of control (PRKCQ (human)): 100%
- kinase still bound, per cent of control (DYRK1B (human)): 90%
- kinase still bound, per cent of control (RAF1 (human)): 34%
- kinase still bound, per cent of control (CDK15 (human)): 95%
- kinase still bound, per cent of control (RIPK2 (human)): 1.2%
- kinase still bound, per cent of control (SLK (human)): 41%
- kinase still bound, per cent of control (MST1R (human)): 88%
- kinase still bound, per cent of control (OXSR1 (human)): 100%
- kinase still bound, per cent of control (MAP2K7 (human)): 100%
- kinase still bound, per cent of control (WEE2 (human)): 100%
- kinase still bound, per cent of control (MUSK (human)): 100%
- kinase still bound, per cent of control (ACVR1B (human)): 4.6%
- kinase still bound, per cent of control (STK25 (human)): 84%
- kinase still bound, per cent of control (PHKG2 (human)): 76%

SMILES: COc1cc2ncnc(Nc3cccc(Cl)c3)c2cc1OC
- kinase still bound, per cent of control (AKT1 (human)): 100%
- kinase still bound, per cent of control (CDK13 (human)): 91%
- kinase still bound, per cent of control (SRPK1 (human)): 67%
- kinase still bound, per cent of control (CDC42BPB (human)): 98%
- kinase still bound, per cent of control (PKN1 (human)): 94%
- kinase still bound, per cent of control (PDPK1 (human)): 80%
- kinase still bound, per cent of control (PIK3C2G (human)): 43%
- kinase still bound, per cent of control (EPHA1 (human)): 43%
- kinase still bound, per cent of control (MAP3K1 (human)): 16%
- kinase still bound, per cent of control (MAP2K3 (human)): 57%
- kinase still bound, per cent of control (PIK3CA (human)): 76%
- kinase still bound, per cent of control (ULK3 (human)): 24%
- kinase still bound, per cent of control (EPHB6 (human)): 16%
- kinase still bound, per cent of control (MAPK11 (human)): 57%
- kinase still bound, per cent of control (MAP2K6 (human)): 95%
- kinase still bound, per cent of control (PRKX (human)): 100%
- kinase still bound, per cent of control (SRPK3 (human)): 93%
- kinase still bound, per cent of control (RPS6KA5 KD2 (human)): 67%
- kinase still bound, per cent of control (MAPK8 (human)): 38%
- kinase still bound, per cent of control (RPS6KA3 KD1 (human)): 67%
- kinase still bound, per cent of control (MAPK15 (human)): 100%
- kinase still bound, per cent of control [1]: 55%
- kinase still bound, per cent of control (GRK1 (human)): 100%
- kinase still bound, per cent of control (CDK11B (human)): 86%
- kinase still bound, per cent of control (PRKCQ (human)): 100%
- kinase still bound, per cent of control (DYRK1B (human)): 70%
- kinase still bound, per cent of control (RAF1 (human)): 84%
- kinase still bound, per cent of control (CDK15 (human)): 75%
- kinase still bound, per cent of control (RIPK2 (human)): 19%
- kinase still bound, per cent of control (SLK (human)): 2%
- kinase still bound, per cent of control (MST1R (human)): 100%
- kinase still bound, per cent of control (OXSR1 (human)): 71%
- kinase still bound, per cent of control (MAP2K7 (human)): 73%
- kinase still bound, per cent of control (WEE2 (human)): 81%
- kinase still bound, per cent of control (MUSK (human)): 100%
- kinase still bound, per cent of control (ACVR1B (human)): 100%
- kinase still bound, per cent of control (STK25 (human)): 77%
- kinase still bound, per cent of control (MAPK14 (human)): 63%
- kinase still bound, per cent of control (PHKG2 (human)): 93%

SMILES: CC(=O)c1c(C)c2cnc(Nc3ccc(N4CCNCC4)cn3)nc2n(C2CCCC2)c1=O
- kinase still bound, per cent of control (AKT1 (human)): 92%
- kinase still bound, per cent of control (CDK13 (human)): 47%
- kinase still bound, per cent of control (CDC42BPB (human)): 91%
- kinase still bound, per cent of control (PKN1 (human)): 66%
- kinase still bound, per cent of control (PIK3C2G (human)): 20%
- kinase still bound, per cent of control (EPHA1 (human)): 100%
- kinase still bound, per cent of control (MAP3K1 (human)): 87%
- kinase still bound, per cent of control (MAP2K3 (human)): 19%
- kinase still bound, per cent of control (PIK3CA (human)): 69%
- kinase still bound, per cent of control (ULK3 (human)): 40%
- kinase still bound, per cent of control (EPHB6 (human)): 65%
- kinase still bound, per cent of control (MAPK11 (human)): 96%
- kinase still bound, per cent of control (MAP2K6 (human)): 45%
- kinase still bound, per cent of control (PRKX (human)): 90%
- kinase still bound, per cent of control (SRPK3 (human)): 23%
- kinase still bound, per cent of control (RPS6KA5 KD2 (human)): 15%
- kinase still bound, per cent of control (MAPK8 (human)): 1.6%
- kinase still bound, per cent of control (RPS6KA3 KD1 (human)): 28%
- kinase still bound, per cent of control (MAPK15 (human)): 9.4%
- kinase still bound, per cent of control (GRK1 (human)): 89%
- kinase still bound, per cent of control (CDK11B (human)): 93%
- kinase still bound, per cent of control (PRKCQ (human)): 68%
- kinase still bound, per cent of control (DYRK1B (human)): 3.2%
- kinase still bound, per cent of control (CDK15 (human)): 39%
- kinase still bound, per cent of control (OXSR1 (human)): 81%
- kinase still bound, per cent of control (MAP2K7 (human)): 87%
- kinase still bound, per cent of control (WEE2 (human)): 75%
- kinase still bound, per cent of control (ACVR1B (human)): 96%
- kinase still bound, per cent of control (STK25 (human)): 34%
- kinase still bound, per cent of control (PHKG2 (human)): 5%
